Measured values as given in patent US9556135B2, “Amino-dihydrothiazine and amino-dioxido dihydrothiazine compounds as beta-secretase antagonists and methods of use” (Amgen Inc., priority 2012, dated 2017).
Where two headings read alike, the source gives them in different places.

Assays:
[1] = target: Cathepsin D (Cat D) (Homo sapiens (Human), UniProt P07339); assay: In vitro enzymatic Cathepsin D (Cat D) FRET assay; format: biochemical; details: read-out: CatD IC50
Description: In Vitro Enzymatic Cathepsin D (Cat D) FRET (Fluorescence Resonance Energy Transfer) Assay Recombinant Cat D was expressed in CHO cells. […] The Cat D enzyme (9 nM) is pre-incubated for one hour with inhibitors, typically in about 1 uL of DMSO according to a serial dilution, is added thereto. […] The FRET assay is terminated with by addition of Tris buffer, which raises the pH to neutrality, and the fluorescence is determined. The FRET substrate is a peptide with commercially available fluorophore and quencher, on opposite sides of the BACE cleavage site. The Cat D substrate peptide sequence is based on sequence #1 of Table 1 from Gulnik et al. […] Where available, the in-vitro Cat D FRET assay data for each of the Examples, conducted by the first procedure, is provided.

[2] = target: Beta Secretase enzyme (BACE1) (Homo sapiens (Human), UniProt P56817); assay: In vitro enzymatic BACE FRET assay; format: biochemical
Sequence of Beta Secretase enzyme (BACE1) (P56817 46-501): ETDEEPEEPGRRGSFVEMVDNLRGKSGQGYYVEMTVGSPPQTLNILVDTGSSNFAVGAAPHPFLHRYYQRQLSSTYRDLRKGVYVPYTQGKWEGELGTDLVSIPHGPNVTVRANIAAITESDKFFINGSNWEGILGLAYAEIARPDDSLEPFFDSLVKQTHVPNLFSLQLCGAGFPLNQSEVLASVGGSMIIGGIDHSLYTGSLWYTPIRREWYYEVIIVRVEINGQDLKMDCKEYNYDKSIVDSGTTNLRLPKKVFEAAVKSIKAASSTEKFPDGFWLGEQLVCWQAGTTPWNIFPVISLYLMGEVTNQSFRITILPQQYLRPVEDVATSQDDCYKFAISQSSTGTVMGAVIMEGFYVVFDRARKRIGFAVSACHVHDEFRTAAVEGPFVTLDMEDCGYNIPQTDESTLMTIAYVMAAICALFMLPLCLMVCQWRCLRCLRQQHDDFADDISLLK
Description: In Vitro Enzymatic BACE FRET (Fluorescence Resonance Energy Transfer) Assay (Enzyme Assay Data in the Example Tables I and II)
The assay buffer used in this screen is 0.05 M acetate, pH 4.2, 10% DMSO final, 100 uM genapol (which is a nonionic detergent, below its Critical Micelle Concentration). […] This assay is effectively started by the addition of FRET substrate (50 nM) and the combination is incubated for one hour. The FRET assay is terminated with by addition of Tris buffer, which raises the pH to neutrality, and the fluorescence is determined. The FRET substrate is a peptide with commercially available fluorophore and quencher, on opposite sides of the BACE cleavage site. Proteolytic cleavage of the FRET substrate releases quenching of fluorescence (excitation […] and […]).

[3] = system: Abeta 40; assay: In vivo inhibition of beta-secretase: Abeta 40 reduction in CSF and brain of the rat; details: 10 mpk (unless otherwise noted), after 4 hrs
From the text: In Vivo Inhibition of Beta-Secretase
Several animal models, including mouse, rat, dog, and monkey, may be used to screen for inhibition of beta-secretase activity in vivo following administration of a test compound sample. Animals used in this invention can be wild type, transgenic, or gene knockout animals. […] One to twenty-four hours following the administration of compound, animals are sacrificed, and brains as well as cerebrospinal fluid (CSF) and plasma are removed for analysis of A-beta levels and drug or test compound concentrations (Dovey et al., 2001, Journal of Neurochemistry, 76, 173-181) Beginning at time 0, animals are administered by oral gavage, or other means of delivery such as intravenous injection, an inhibitory test compound of up to 100 mg/kg in a standard, conventional formulation, such as 2% hydroxypropyl methylcellulose, 1% Tween80. A separate group of animals receive 2% hydroxypropyl methylcellulose, 1% Tween80 alone, containing no test compound, and serve as a vehicle-control group. At the end of the test period, animals are sacrificed and brain tissues, plasma or cerebrospinal fluid are collected. Brains are either homogenized in 10 volumes (w/v) of 0.2% diethylamine (DEA) in 50 mM NaCl (Best et al., 2005, Journal of Pharmacology and Experimental Therapeutics, 313, 902-908), or in 10 volumes of 0.5% TritonX-100 in Tris-buffered saline (pH at about 7.6). Homogenates are centrifuged at 355,000 g, 4° C. for 30 minutes. CSF or brain supernatants are then analyzed for the presence of A-beta peptide by specific sandwich ELISA assays based on ECL (Electrochemiluminescence) technology. For example, rat Abeta40 is measured using biotinylated-4G8 (Signet) as a capture antibody and Fab40 (an in-house antibody specific to the C-terminal of Abeta40) as a detection antibody.
Actual vehicles used: Oral: 2% HPMC, 1% Tween80, pH 2.2

Sequence of Cathepsin D (Cat D) (P07339 65-412, species assumed): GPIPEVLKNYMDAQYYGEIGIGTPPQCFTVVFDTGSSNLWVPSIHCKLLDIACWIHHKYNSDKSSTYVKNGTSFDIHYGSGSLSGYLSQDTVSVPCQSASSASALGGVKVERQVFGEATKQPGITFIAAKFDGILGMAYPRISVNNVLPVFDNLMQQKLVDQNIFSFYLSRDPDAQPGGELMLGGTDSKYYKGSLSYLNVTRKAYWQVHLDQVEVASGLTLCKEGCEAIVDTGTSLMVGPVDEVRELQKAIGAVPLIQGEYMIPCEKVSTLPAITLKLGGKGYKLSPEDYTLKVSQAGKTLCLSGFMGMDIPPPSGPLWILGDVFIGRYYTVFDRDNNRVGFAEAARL

SMILES | IC50 [1] | % reduction of rat CSF levels at 10 pmk [3] | % reduction of rat brain levels at 10 mpk [3] | further results
COc1cnc(C(=O)Nc2ccc(F)c([C@]3(C)CSCC(N)=N3)c2)cn1 [Example 43, (R)—N-(3-(5-amino-3-methyl-3,6-dihydro-2H-1,4-thiazin-3-yl)-4-fluorophenyl)-5-methoxypyrazine-2-carboxamide] | > 400 µM | – | – | –
CC1(C)C(N)=N[C@]2(c3cc(N)ccc3F)COC[C@@H]2S1(=O)=O [Example 185d, (4aR,7aR)-3-amino-4a-(5-amino-2-fluorophenyl)-2,2-dimethyl-4a,5,7,7a-tetrahydro-2H-furo[3,4-b][1,4]thiazine 1,1-dioxide] | – | – | – | IC50 ([1]; Cathepsin D FRET assay): 152 µM; IC50 ([2]; average IC50, enzyme assay): 3.83 µM
CC1(C)C(N)=N[C@@]2(c3cc(N)ccc3F)COC[C@H]2S1(=O)=O [Example 185c, (4aS,7aS)-3-amino-4a-(5-amino-2-fluorophenyl)-2,2-dimethyl-4a,5,7,7a-tetrahydro-2H-furo[3,4-b][1,4]thiazine 1,1-dioxide] | – | – | – | IC50 ([1]; Cathepsin D FRET assay): > 400 µM; IC50 ([2]; average IC50, enzyme assay): > 40 µM
CC1(C)C(N)=N[C@](CF)(c2cc(Nc3ncnc4cc(Cl)cnc34)ccc2F)CS1(=O)=O [Example 235, N-(3-((3S)-5-amino-3-(fluoromethyl)-6,6-dimethyl-1,1-dioxido-3,6-dihydro-2H-1,4-thiazin-3-yl)-4-fluorophenyl)-7-chloropyrido[3,2-d]pyrimidin-4-amine] | – | 38% | 14% | –
Cc1c(C(=O)Nc2ccc(F)c([C@]3(CF)CS(=O)(=O)C(C)(C)C(N)=N3)c2)nc2ccc(Cl)cn12 [Example 158, (S)—N-(3-(5-amino-3-(fluoromethyl)-6,6-dimethyl-1,1-dioxido-3,6-dihydro-2H-1,4-thiazin-3-yl)-4-fluorophenyl)-6-chloro-3-methylimidazo[1,2-a]pyridine-2-carboxamide] | – | 11% | −5% | –
CC1(C)C(N)=N[C@](C)(c2cc(NC(=O)c3ncc(Cl)cc3F)ccc2F)C(F)S1(=O)=O (stereo partly drawn) [Example 329, N-(3-((3R)-5-amino-2-fluoro-3,6,6-trimethyl-1,1-dioxido-3,6-dihydro-2H-1,4-thiazin-3-yl)-4-fluorophenyl)-5-chloro-3-fluoro-2-pyridinecarboxamide] | – | 27% | 20% | –
CC1(C)C(N)=N[C@](CF)(c2cc(Nc3ncc(F)c4cc(Cl)cnc34)ccc2F)CS1(=O)=O [Example 233, N-(3-((3S)-5-amino-3-(fluoromethyl)-6,6-dimethyl-1,1-dioxido-3,6-dihydro-2H-1,4-thiazin-3-yl)-4-fluorophenyl)-3-chloro-5-fluoro-1,7-naphthyridin-8-amine] | – | 25% | 0% | –
Cc1cc(Cl)cnc1C(=O)Nc1ccc(F)c([C@]2(C)CS(=O)(=O)[C@@](C)(F)C(N)=N2)c1 [Example 388, N-(3-((3R,6R)-5-amino-6-fluoro-3,6-dimethyl-1,1-dioxido-3,6-dihydro-2H-1,4-thiazin-3-yl)-4-fluorophenyl)-5-chloro-3-methyl-2-pyridinecarboxamide] | – | 33% | 7% | –
COc1ccc(C(=O)Nc2cnc(F)c([C@]3(C)CS(=O)(=O)C(C)(C)C(N)=N3)c2)nc1 [Example 401, N-(5-((3R)-5-amino-3,6,6-trimethyl-1,1-dioxido-3,6-dihydro-2H-1,4-thiazin-3-yl)-6-fluoro-3-pyridinyl)-5-methoxy-2-pyridinecarboxamide] | – | 69% | 48% | –
Cc1cc(Cl)cnc1C(=O)Nc1ccc(F)c([C@]2(CF)CS(=O)(=O)C3(CC3)C(N)=N2)c1 [Example 216, (S)—N-(3-(8-amino-6-(fluoromethyl)-4,4-dioxido-4-thia-7-azaspiro[2.5]oct-7-en-6-yl)-4-fluorophenyl)-5-chloro-3-methylpicolinamide] | – | 57% | 14% | –
COc1cnc2c(Nc3cnc(F)c([C@]4(C)CS(=O)(=O)C(C)(C)C(N)=N4)c3)nccc2c1 [Example 66, N-(5-((3R)-5-amino-3,6,6-trimethyl-1,1-dioxido-3,6-dihydro-2H-1,4-thiazin-3-yl)-6-fluoro-3-pyridinyl)-3-methoxy-1,7-naphthyridin-8-amine] | 101 µM | – | – | IC50 [2]: 0.0043 µM
CC1(C)C(N)=N[C@](C)(c2cc(NC(=O)c3cnc(OCC(F)(F)F)cn3)ccc2F)CS1(=O)=O [Example 346, N-(3-((3R)-5-amino-3,6,6-trimethyl-1,1-dioxido-3,6-dihydro-2H-1,4-thiazin-3-yl)-4-fluorophenyl)-5-(2,2,2-trifluoroethoxy)-2-pyrazinecarboxamide] | – | 69% | 48% | –
Cc1cc(OC(F)F)cnc1C(=O)Nc1ccc(F)c([C@]2(C)CS(=O)(=O)[C@@](C)(F)C(N)=N2)c1 [Example 321, N-(3-((3R,6R)-5-amino-6-fluoro-3,6-dimethyl-1,1-dioxido-3,6-dihydro-2H-1,4-thiazin-3-yl)-4-fluorophenyl)-5-(difluoromethoxy)-3-methyl-2-pyridinecarboxamide] | – | 44% | 37% | –

More lines, main results first:

IC50 [1] | SMILES | % reduction of rat CSF levels at 10 pmk [3] | % reduction of rat brain levels at 10 mpk [3] | further results
322 µM | CC1(C)C(N)=NC2(c3cc(Br)ccc3F)COCC2S1(=O)=O (stereo not shown) [Example 185, 3-amino-4a-(5-bromo-2-fluorophenyl)-2,2-dimethyl-4a,5,7,7a-tetrahydro-2H-furo[3,4-b][1,4]thiazine 1,1-dioxide] | – | – | IC50 ([2]; average IC50, enzyme assay): 30.2 µM
> 400 µM | CC1(C)C(N)=N[C@]2(c3cc(Br)ccc3F)COC[C@@H]2S1(=O)=O [Example 185b, (4aR,7aR)-3-amino-4a-(5-bromo-2-fluorophenyl)-2,2-dimethyl-4a,5,7,7a-tetrahydro-2H-furo[3,4-b][1,4]thiazine 1,1-dioxide] | – | – | IC50 ([2]; average IC50, enzyme assay): > 40 µM
11.3 µM | CC1(C)C(N)=N[C@](C)(c2cc(Nc3nccc4cc(Cl)cnc34)cc(F)c2F)CS1(=O)=O [Example 69, (R)-5-Amino-3-(5-((3-chloro-1,7-naphthyridin-8-yl)amino)-2,3-difluorophenyl)-3,6,6-trimethyl-3,6-dihydro-2H-1,4-thiazine 1,1-dioxide] | – | – | IC50 [2]: 0.0014 µM
400 µM | C[C@]1(c2cc(NC(=O)c3cnc(C(F)F)cn3)ccc2F)N=C(N)C2(CCC2)S(=O)(=O)[C@@H]1F [Example 140, N-(3-((6S,7R)-9-amino-6-fluoro-7-methyl-5,5-dioxido-5-thia-8-azaspiro[3.5]non-8-en-7-yl)-4-fluorophenyl)-5-(difluoromethyl)pyrazine-2-carboxamide] | – | – | –
70.9 µM | CC1(C)C(N)=N[C@@]2(c3cc(Br)ccc3F)COC[C@H]2S1(=O)=O [Example 185a, (4aS,7aS)-3-amino-4a-(5-bromo-2-fluorophenyl)-2,2-dimethyl-4a,5,7,7a-tetrahydro-2H-furo[3,4-b][1,4]thiazine 1,1-dioxide] | – | – | IC50 ([2]; average IC50, enzyme assay): 4.83 µM
